For data set [1], the system named is aged-impaired (AI) rats. The experiment in a line: Morris water maze behavioral task, ICV infusion. It counts as in vivo, rat. The conditions noted are these: 100 μg ICV. The text has this:
Cognitively impaired aged rats were implanted unilaterally with a cannula into the lateral ventricle. Stereotaxic coordinates were 1.0 mm posterior to bregma, 1.5 mm lateral to midline, and 3.5 mm ventral to the skull surface. After about a week of recovery, the rats were pre-trained in a water maze for 2 days (6 trials per day) to locate a submerged escape platform hidden underneath the surface of the pool, in which the escape platform location varied from day to day. No intracerebroventricular (ICY) infusion was given during pre-training.
After pre-training, rats received ICV infusion of either 100 μg 6,6 dimethyl-3-(3-hydroxypropypthio-1-(thiazol-2-yl)-6,7-dihydro-2-benzothiophen-4(5H)-one (n=6) in 5 μl DMSO or vehicle DMSO (n=5) 40 min prior to water maze training and testing. Training consisted of 8 trials per day for 2 days where the hidden escape platform remained in the same location. Rats were given 60 seconds to locate the platform with a 60 seconds inter-trial interval. The rats were given a probe test (120 seconds) 24 hr. after the end of training where the escape platform was removed. During the training, there were 4 blocks, where each block had 4 training trials.
During a test trial 24 hr. after training, the escape platform was removed. The search/swim pattern of the rats was used to measure whether the rats remember where the escape platform was located during pre-trial training in order to test for the long-term memory of the rats. In this trial, “target annulus” is a designated area 1.5 times the size of the escape platform around the area where the platform was located during pre-trial training. “Opposite annulus” is a control area of the same size as the size of the target annulus, which is located opposite to the target annulus in the pool. If the rats had good long term memory, they would tend to search in the area surrounding the location where the platform was during the pre-trial training (i.e., the “target” annulus; and not the “opposite” annulus). “Time in annulus” is the amount of time in seconds that the rat spent in the target or opposite annulus area. “Number (#) of crossings” in annulus is the number of times the rat swam across the target or opposite annulus area.

Data set [2] addresses T1, α5β3γ2 GABAA receptors (Ltk cell membranes) (Homo sapiens, UniProt P18507+P31644).
T1 construct: membranes
Nature of the data set: Binding activity of test compounds on GABAAR: inhibition of [3H]Ro15-1788 binding. The method in brief: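 Membranes from dexamethasone-induced Ltk cells (α5 line: 0.5 μM, 1 day); binding with [3H]Ro15-1788 for 1 h at 4 °C in 50 mM KH2PO4, 1 mM EDTA, 0.2 M KCl, pH 7.4, 0.2 mg/ml α5 protein. Nonspecific binding defined by 10 μM diazepam; filtration, scintillation counting, triplicates.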

In the next data set the target is T2, GABAA α5 receptor (Rattus norvegicus, UniProt P18508+P19969).
T2 construct: from tissue
T2 sequence (P19969 32-464 limits assumed): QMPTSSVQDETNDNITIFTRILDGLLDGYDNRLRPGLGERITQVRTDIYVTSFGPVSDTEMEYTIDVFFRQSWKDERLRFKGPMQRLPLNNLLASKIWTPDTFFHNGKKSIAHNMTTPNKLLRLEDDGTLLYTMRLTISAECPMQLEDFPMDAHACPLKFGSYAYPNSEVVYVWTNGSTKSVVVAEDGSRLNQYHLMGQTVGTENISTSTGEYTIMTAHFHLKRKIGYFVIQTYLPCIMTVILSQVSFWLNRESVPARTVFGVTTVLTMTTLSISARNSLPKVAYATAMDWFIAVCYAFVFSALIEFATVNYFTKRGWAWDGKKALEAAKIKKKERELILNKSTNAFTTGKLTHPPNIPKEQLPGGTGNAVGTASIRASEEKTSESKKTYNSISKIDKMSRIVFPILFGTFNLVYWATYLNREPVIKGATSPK
T2 sequence (P18508 39-466): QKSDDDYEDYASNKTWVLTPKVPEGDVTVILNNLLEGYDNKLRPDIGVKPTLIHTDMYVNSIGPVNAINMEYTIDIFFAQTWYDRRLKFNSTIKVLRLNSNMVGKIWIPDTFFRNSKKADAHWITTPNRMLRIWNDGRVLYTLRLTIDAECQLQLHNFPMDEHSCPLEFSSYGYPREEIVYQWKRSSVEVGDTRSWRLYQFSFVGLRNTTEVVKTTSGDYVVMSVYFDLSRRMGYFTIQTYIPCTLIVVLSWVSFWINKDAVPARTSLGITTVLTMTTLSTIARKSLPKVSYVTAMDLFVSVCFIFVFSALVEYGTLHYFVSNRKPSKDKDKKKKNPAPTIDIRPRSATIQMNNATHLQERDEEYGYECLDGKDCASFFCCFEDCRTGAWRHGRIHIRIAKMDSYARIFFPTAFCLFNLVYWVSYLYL
Nature of the data set: GABAA α5 receptor occupancy with Ro 15-4513 tracer, hippocampus vs cerebellum. Type of data set: in vivo, Long Evans rats. Particulars: for Ro 15-4513 binding in hippocampus / cerebellum levels (binding) of Ro 15-4513: 0.01-10 mg/kg. The method, then:
Food and water were available ad libitum.
The (100 μl) supernatant solution was diluted by […] of sterile water (pH 6.5).

A further data set relates to MAM-treated rats. The conditions noted are these: cited from earlier work.
Data set [3] deals with aged-impaired (AI) rats. The experiment in a line: Radial Arm Maze (RAM) behavioral task, spatial memory retention. It counts as in vivo, rat. On the procedure:
The effects of methyl 3,5-diphenylpyridazine-4-carboxylate on the in vivo spatial memory retention of aged-impaired (AI) rats were assessed in a Radial Arm Maze (RAM) behavioral task using vehicle control and four different dosage levels of methyl 3,5-diphenylpyridazine-4-carboxylate (0.1 mg/kg, 0.3 mg/kg, 1 mg/kg and 3 mg/kg, ip). RAM behavioral tasks were performed on eight AI rats. All five treatment conditions (vehicle and four dosage levels) were tested on all eight rats.
The RAM apparatus used consisted of eight equidistantly-spaced arms. An elevated maze arm (7 cm width×75 cm length) projected from each facet of an octagonal center platform (30 cm diameter, 51.5 cm height). Clear side walls on the arms were 10 cm high and were angled at 65° to form a trough. A food well (4 cm diameter, 2 cm deep) was located at the distal end of each arm. Froot Loops™ (Kellogg Company) were used as rewards. Blocks constructed of Plexiglas™ (30 cm height×12 cm width) could be positioned to prevent entry to any arm. Numerous extra maze cues surrounding the apparatus were also provided.
The AI rats were initially subjected to a pre-training test (Chappell et al. Neuropharmacology 37: 481-487, 1998). […]

[4] abbreviates: GABA α5 Binding Ki Values, inhibition of [3H]Ro15-1788 binding, reported as ranges.
The mark [5] stands for this setting: i.v., listed as Methyl 3,5-diphenylpyridazine-4-carboxylate.

The structures appear in SMILES notation. Read-outs that look alike come from different tables or passages of the source.

The term Ki denotes the dissociation constant of the complex between target and ligand, obtained from inhibition or displacement. Read a low Ki as a stronger hold on the target.

T1 sequence (P31644 32-462): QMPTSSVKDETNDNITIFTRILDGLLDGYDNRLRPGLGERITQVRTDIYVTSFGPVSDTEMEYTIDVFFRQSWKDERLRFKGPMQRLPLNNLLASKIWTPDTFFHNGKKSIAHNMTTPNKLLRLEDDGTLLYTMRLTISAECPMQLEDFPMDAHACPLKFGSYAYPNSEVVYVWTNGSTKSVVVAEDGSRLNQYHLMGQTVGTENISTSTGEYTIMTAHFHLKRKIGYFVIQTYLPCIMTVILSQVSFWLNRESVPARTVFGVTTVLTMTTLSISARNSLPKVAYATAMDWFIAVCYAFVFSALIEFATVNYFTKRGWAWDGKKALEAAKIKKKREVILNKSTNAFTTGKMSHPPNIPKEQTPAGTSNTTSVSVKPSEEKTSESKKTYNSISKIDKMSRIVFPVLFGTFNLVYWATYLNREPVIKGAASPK
T1 sequence (P28472 26-473 partner): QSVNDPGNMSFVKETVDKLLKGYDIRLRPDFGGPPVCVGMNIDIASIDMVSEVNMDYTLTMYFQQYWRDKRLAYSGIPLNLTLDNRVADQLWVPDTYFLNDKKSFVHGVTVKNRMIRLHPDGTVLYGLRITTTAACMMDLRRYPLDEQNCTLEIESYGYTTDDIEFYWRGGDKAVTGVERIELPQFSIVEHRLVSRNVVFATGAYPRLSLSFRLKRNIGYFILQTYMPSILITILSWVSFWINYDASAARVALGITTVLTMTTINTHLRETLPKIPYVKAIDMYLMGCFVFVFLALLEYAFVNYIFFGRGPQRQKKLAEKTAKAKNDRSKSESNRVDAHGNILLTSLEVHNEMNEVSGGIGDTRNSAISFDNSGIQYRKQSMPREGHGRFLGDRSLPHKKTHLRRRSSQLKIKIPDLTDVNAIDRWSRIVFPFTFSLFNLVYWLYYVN
T1 sequence (P18507 40-475): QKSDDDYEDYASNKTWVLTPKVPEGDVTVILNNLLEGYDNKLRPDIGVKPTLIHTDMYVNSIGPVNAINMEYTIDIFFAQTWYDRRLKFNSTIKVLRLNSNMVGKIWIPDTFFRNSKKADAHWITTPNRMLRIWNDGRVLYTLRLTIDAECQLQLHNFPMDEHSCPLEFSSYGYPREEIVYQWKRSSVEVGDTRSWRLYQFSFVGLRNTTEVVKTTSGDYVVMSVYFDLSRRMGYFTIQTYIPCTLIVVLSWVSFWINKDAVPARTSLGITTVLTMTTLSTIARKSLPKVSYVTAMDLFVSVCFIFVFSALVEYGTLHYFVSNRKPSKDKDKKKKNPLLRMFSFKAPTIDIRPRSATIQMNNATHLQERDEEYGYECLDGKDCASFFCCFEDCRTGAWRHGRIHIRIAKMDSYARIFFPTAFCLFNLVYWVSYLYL

`CC1(C)CC(=O)c2c(SCCCO)sc(-c3nccs3)c2C1` [6,6 dimethyl-3-(3-hydroxypropyl)thio-1-(thiazol-2-yl)-6,7-dihydro-2-benzothiophen-4(5H)-one]: in the data set with aged-impaired (AI) rats [1], the “time to find the escape platform, block 1 (beginning of training)” value is reported as “about 24 seconds” and the “time to find the escape platform, block 4 (end of training)” value is given as “about 9.6 seconds”. In addition, in the data set on aged-impaired (AI) rats [1] (24 hr. after training), the “number of crossings of target annulus compared with opposite annulus, probe test” value was “more often” and the “time in target annulus compared with opposite annulus, probe test” value is “significantly more time”.
In data set [2] (setting [4]), `C#Cc1ncn2c1C(Cc1cccc(F)c1)(Cc1cccc(F)c1)c1cnnn1-c1cc(OC)ccc1-2` [Compound 450] registered a Ki greater than 1000 nM.
Still for that read-out and setting: as for `C#Cc1ncn2c1C(Cc1ccccc1F)c1cnnn1-c1cc(OC)ccc1-2` (stereo not drawn) [Compound 451], the figure is less than 100 nM; as for `Clc1ccc2c(c1)-n1nncc1Cc1c(Br)ncn1-2` [Compound 452], less than 100 nM; as for `CC(C)C#Cc1ccc2c(c1)-n1nncc1Cc1c(C#CC(C)C)ncn1-2` [Compound 453], 100 to 1000 nM.
The compound `CC(C)C#Cc1ccc2c(c1)-n1nncc1Cc1c(Br)ncn1-2` [Compound 454] returned a Ki in data set [2] (setting [4]) of less than 100 nM.
Take `COCc1nnc2n1Cc1c(C#CC(=O)c3ccccc3)ncn1-c1ccc(Cl)cc1-2` [Compound 455]: in data set [2] (setting [4]), the Ki was less than 100 nM.
Still for that read-out and setting: in the case of `COCc1nnc2n1Cc1c(-c3nc(C)no3)ncn1-c1ccc(OC(F)(F)F)cc1-2` [Compound 456] it was less than 100 nM.
For `COCc1nnc2n1Cc1c(-c3nc(C)no3)ncn1-c1cc(Cl)ccc1-2` [Compound 457], in data set [2], the inhibitory constant (Ki) was greater than 1000 nM.
Take `COCc1nnc2n1Cc1c(-c3nc(C)no3)ncn1-c1ccc(C(F)(F)F)cc1-2` [Compound 459]: in data set [2] (setting [4]), the Ki is less than 100 nM.
Same read-out and setting: in the case of `COCc1nnc2n1Cc1c(C3=NCCO3)ncn1-c1ccc(OC(F)(F)F)cc1-2` [Compound 460] it was 100 to 1000 nM.
Still for that read-out and setting: as for `COCc1nnc2n1Cc1c(-c3nc(C)no3)ncn1-c1ccc(Br)cc1-2` [Compound 461], the figure is less than 100 nM.
Still for that read-out and setting: as for `COCc1nnc2n1Cc1c(-c3nc(C)no3)ncn1-c1ccc(-c3ccccc3)cc1-2` [Compound 462], the figure is less than 100 nM.
As to `COCc1nnc2n1Cc1c(-c3nc(C)no3)ncn1-c1c(Cl)cccc1-2` [Compound 463], the Ki in data set [2] is greater than 1000 nM.
In data set [2] (setting [4]), `COCc1nnc2n1Cc1c(-c3nc(C)no3)ncn1-c1ccc(C#N)cc1-2` [Compound 465] yielded a Ki of less than 100 nM.
In data set [2], `COCc1nnc2n1Cc1c(-c3ncco3)ncn1-c1c(Cl)cccc1-2` [Compound 466] had a Ki greater than 1000 nM.
Consider `COCc1nnc2n1Cc1c(-c3ncco3)ncn1-c1ccc(OC(F)(F)F)cc1-2` [Compound 467], for which the Ki in data set [2] (setting [4]) is less than 100 nM.
On the same count and under the same terms, as for `COCc1nnc2n1Cc1c(-c3nc(C)no3)ncn1-c1ccc(-c3cccnc3)cc1-2` [Compound 469], the figure is 100 to 1000 nM.
`COCc1nnc2n1Cc1c(C3=NCCO3)ncn1-c1ccc(C(F)(F)F)cc1-2` [Compound 470] gave a Ki in data set [2] (setting [4]) of 100 to 1000 nM.
On the same count and under the same terms, as for `COCc1nnc2n1Cc1c(-c3ncco3)ncn1-c1ccc(C(F)(F)F)cc1-2` [Compound 471], the figure is less than 100 nM.
Turning to `CCOC(=O)c1ncn2c1Cn1c(C)nnc1-c1cc(OC)ccc1-2` [Ethyl 3-methoxy-7-methyl-9H-benzo[f]imidazo[1,5-a][1,2,4]tri], at GABAA α5 receptor (i.v.), the “Ro 15-4513 binding in hippocampus” value was “blocked” and the “cerebellum levels (binding) of Ro 15-4513” value (from here on “cerebellum levels (binding)”) is recorded as “did not affect”.
With `CCOC(=O)c1ncn2c1CN(C)C(=O)c1cc(N=[N+]=[N-])ccc1-2` [Ro 15-4513], on GABAA α5 receptor (tracer 1 μg/kg, i.v., after vehicle), the “Ro 15-4513 level in hippocampus compared with cerebellum” value is recorded as greater than 5 fold.
In the case of `C#Cc1ccc2c(c1)C(c1ccccc1F)=N[C@H](C)c1c(C(=O)OCC)ncn1-2` [SH-053-2′F-R—CH3], the “increased locomotor response to amphetamine in MAM-treated rats” value in the data set on MAM-treated rats (rat, in vivo) is recorded as “reduced”. Besides, the “number of spontaneously active DA neurons in the ventral tegmental area (VTA) of MAM rats” value with MAM-treated rats (systemic or infused into the ventral HPC) is listed as “to levels observed in saline-treated rats”.
Turning to `CCOC(=O)c1ncn2c1Cn1c(C)nnc1-c1cc(OC)ccc1-2` [ethyl 3-methoxy-7-methyl-9H-benzo[f]imidazo[1,5-a][1,2,4]tri], the “memory performance relative to vehicle control” value with aged-impaired (AI) rats [3] (3 mg/kg, four-hour delay, p=0.004 or p=0.018) is listed as “significantly improved memory performance”. On GABAA α5 receptor (i.v.), the “Ro 15-4513 binding in hippocampus” value is given as “reduced” and the “cerebellum levels (binding)” value was “without affecting”.
In the case of `COC(=O)c1c(-c2ccccc2)cnnc1-c1ccccc1` [methyl 3,5-diphenylpyridazine-4-carboxylate], the “memory performance relative to vehicle control” value in the data set on aged-impaired (AI) rats [3] (3 mg/kg ip, two-hour delay, t(7)=4.233, p=0.004) is recorded as “significantly improved memory performance”. Further, on GABAA α5 receptor (i.v.), the “Ro 15-4513 binding in hippocampus” value is “blocked”; the “cerebellum levels (binding)” value was “did not affect”; the “ED50 of receptor occupancy, ratio method” value is reported as 1.8 mg/kg. Further, at GABAA α5 receptor (setting [5]), the “Ro 15-4513 binding in hippocampus” value was “dose-dependently reduced” and the “cerebellum levels (binding)” value is listed as “without affecting”. At GABAA α5 receptor (from exposure in aged rats at 3 mg/kg, i.p.), the “RO required for cognitive efficacy in this model” value was 30-40%. On GABAA α5 receptor (hippocampus exposure-occupancy relationship (FIG. 4)), the “GABAA α5 receptors occupied at exposures behaviorally active in aged-impaired rats” value is on record as “about 32%”.
